This is an account of results in paper PMC7382742, “Identification of Potential Inhibitors of Calcium/Calmodulin-Dependent Protein Kinase IV from Bioactive Phytoconstituents” (Oxidative Medicine and Cellular Longevity, 2020).

Assay [1] addresses T1, Calcium/calmodulin-dependent protein kinase IV (CaMKIV) (Homo sapiens, UniProt Q16566).
T1 construct: gene CAMK4; CaMKIV kinase domain
T1 sequence (Q16566 46-300 limits assumed): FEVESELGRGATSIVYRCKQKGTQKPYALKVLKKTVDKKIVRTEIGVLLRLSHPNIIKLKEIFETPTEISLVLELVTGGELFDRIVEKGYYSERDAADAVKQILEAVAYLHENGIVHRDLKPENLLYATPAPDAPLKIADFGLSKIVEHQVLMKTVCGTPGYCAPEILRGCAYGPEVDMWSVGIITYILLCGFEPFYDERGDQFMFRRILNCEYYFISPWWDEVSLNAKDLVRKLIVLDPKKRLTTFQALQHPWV
Briefly: malachite green (BIOMOL Green) ATPase inhibition assay with recombinant refolded CaMKIV; also intrinsic fluorescence quenching (binding constant […] ^-1). The assay is classed as biochemical.

Assay [2] has as its target T1, Calcium/calmodulin-dependent protein kinase IV (CaMKIV). The experiment in a line: malachite green (BIOMOL Green) ATPase inhibition assay with recombinant refolded CaMKIV; also intrinsic fluorescence quenching (Ksv […] ^-1). The assay is classed as biochemical.

Turning to `O=c1oc2c(O)c(O)cc3c(=O)oc4c(O)c(O)cc1c4c23` [EA, ellagic acid], in assay [1], the IC50 (in general, the concentration that inhibits the measured activity by half) amounted to 39.7 ± 8.6 µM. In the case of `O=c1c(O)c(-c2ccc(O)c(O)c2)oc2cc(O)cc(O)c12` [quercetin], the IC50 in assay [2] was found to be 61.3 ± 5.4 µM.
